We go through 17 molecules from patent publication US10975068B2, “6-aminopyridin-3-yl thiazoles as modulators of RORγT” (Janssen Pharmaceutica NV, priority 2016, dated 2021).

What is called Kd is the concentration at which binding is half-saturated. One may read the IC50 as the concentration at which inhibition is half-maximal. A word on the inhibition: it is the change of the read-out against control, counted positive when it falls.

SMILES strings stand for the structures. Read-outs that look alike come from different tables or passages of the source.

Test [1] deals with human RORγt ligand binding domain (RORγt LBD) (Homo sapiens (Human), UniProt P51449). The test is described as follows: RORγt ThermoFluor® assay (thermal shift binding). The note with it: read-out: ThermoFluor® Assay, Kd. In outline: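 Binding was inferred from thermal stabilisation (ΔTm) of the E. coli-expressed RORγt LBD (0.065 mg/mL), monitored by 1,8-ANS (60 μM) emission at 500 nm during a 1 °C/min ramp. Buffer was Hepes 100 mM pH 7.0 with NaCl, GSH and Tween-20.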
Background: DSF heats the sample and reads unfolding from a dye or from intrinsic fluorescence.

In test [2] the target is full-length human RORγt (Homo sapiens (Human), UniProt P51449). The experiment in a line: RORγt (full-length human) reporter assay, Conditions B or C. The test is classed as cell-based. The note with it: for RORγt (FL) Reporter Assay B or C, % inhibition (value marked *): marked *: footnote not given; for inhibition at 3 µM: at 3 μM compound concentration. In outline: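 Readout is dual luciferase: firefly (GAL4-driven) normalized to DMSO-only and saturating-reference controls, then to CMV-Renilla. Full-length human RORγt fused to GAL4-DBD was transiently expressed in HEK293T; compound exposure ran overnight (16-20 h) starting 4-6 h after transfection, final FBS 1.3%, DMSO 0.1%.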
In general terms: In a reporter assay the amount or activity of a reporter protein is the signal.

The mark [3] stands for this setting: Conditions B or C, read-out: RORγt (FL) Reporter Assay B or C, IC50.
The mark [4] stands for this setting: read-out: RORγt (FL) Reporter Assay B or C, IC50.
[5] abbreviates: read-out: RORγt (FL) Reporter Assay B or C, % inhibition.

human RORγt ligand binding domain (RORγt LBD), sequence (P51449 other isoform, or with tags, fused parts or gaps): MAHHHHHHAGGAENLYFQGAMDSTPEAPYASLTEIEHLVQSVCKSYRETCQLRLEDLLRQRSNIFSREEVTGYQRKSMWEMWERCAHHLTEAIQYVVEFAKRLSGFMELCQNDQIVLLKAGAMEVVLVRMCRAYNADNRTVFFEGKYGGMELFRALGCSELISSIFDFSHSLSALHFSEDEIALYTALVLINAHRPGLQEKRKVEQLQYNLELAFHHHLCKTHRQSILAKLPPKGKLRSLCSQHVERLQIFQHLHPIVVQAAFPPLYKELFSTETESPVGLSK
full-length human RORγt, sequence (P51449 other isoform, or with tags, fused parts or gaps): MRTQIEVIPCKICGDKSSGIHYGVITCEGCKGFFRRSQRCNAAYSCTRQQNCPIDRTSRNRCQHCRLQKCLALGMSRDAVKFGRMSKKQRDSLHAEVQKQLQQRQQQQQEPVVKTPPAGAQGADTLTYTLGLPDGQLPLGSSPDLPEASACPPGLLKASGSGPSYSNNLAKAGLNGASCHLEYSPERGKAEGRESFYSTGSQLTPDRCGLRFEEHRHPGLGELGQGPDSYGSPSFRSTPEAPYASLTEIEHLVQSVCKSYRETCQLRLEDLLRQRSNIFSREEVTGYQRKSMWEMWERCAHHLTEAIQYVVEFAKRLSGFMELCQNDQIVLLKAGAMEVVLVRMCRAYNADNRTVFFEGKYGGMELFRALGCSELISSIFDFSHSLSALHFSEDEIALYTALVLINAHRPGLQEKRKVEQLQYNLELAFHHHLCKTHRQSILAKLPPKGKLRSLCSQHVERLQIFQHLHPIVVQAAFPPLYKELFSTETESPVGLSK

With `C[C@H]1CCCN1C(=O)c1nc(C(=O)NCC(C)(C)O)sc1-c1cnc(NC2(C)CCC2)cc1C(F)(F)F` [Example 77, (S)—N-(2-Hydroxy-2-methylpropyl)-5-(6-((1-methylcyclobutyl)amino)-4-(trifluoromethyl)pyridin-3-yl)-4-(2-methylpyrrolidine-1-carbonyl)thiazole-2-carboxamide], in test [1], the dissociation constant Kd is 1.3 nM. In addition, in test [2] (Conditions B or C), the “RORγt (FL) Reporter Assay B or C, % inhibition (value marked *)” value (“RORγt … % inhibition (value marked *)” below) is 108* %. In addition, in test [2] (setting [3]), the IC50 came out at 17 nM.

As to `CC[C@H](Nc1cc(C(F)F)c(-c2sc(C(=O)N[C@H]3CC[C@@H]3O)nc2C(=O)N2C3CCC2CC3)cn1)C(F)(F)F` (relative stereo) [Example 406, 4-((1s,4s)-7-Azabicyclo[2.2.1]heptane-7-carbonyl)-5-(4-(difluoromethyl)-6-(((S)-1,1,1-trifluorobutan-2-yl)amino)pyridin-3-yl)-N-((1S*,2S*)-2-hydroxycyclobutyl)thiazole-2-carboxamide], the dissociation constant (Kd) in test [1] came out at 2.7 nM. Moreover, the inhibition at 0.3 µM in test [2] (at 0.3 μM compound concentration, read-out: RORγt (FL) Reporter Assay B or C, % inhibition) was found to be 92%. Also, in test [2] (setting [4]), the concentration for half-maximal inhibition (IC50) was found to be 81 nM.

For `C[C@H]1CCCN1C(=O)c1nc(C(=O)N[C@@H]2CCC[C@H]2O)sc1-c1cnc(NC(C)(C)C)cc1C(F)F` [Example 397, 5-[6-(tert-Butylamino)-4-(difluoromethyl)-3-pyridyl]-N-[(1R,2R)-2-hydroxycyclopentyl]-4-[(2S)-2-methylpyrrolidine-1-carbonyl]thiazole-2-carboxamide], the dissociation constant (Kd) in test [1] was 1.2 nM. Moreover, in test [2] (setting [5]), the inhibition at 3 µM was 118%. Further, the concentration for half-maximal inhibition (IC50) in test [2] (setting [4]) turned out to be 9 nM.

`CC[C@H](Nc1cc(C(F)F)c(-c2sc(C(=O)NC3CCS(=O)(=O)CC3)nc2C(=O)N2CCC[C@@H]2C)cn1)C(F)(F)F` [Example 232, 5-(4-(Difluoromethyl)-6-(((S)-1,1,1-trifluorobutan-2-yl)amino)pyridin-3-yl)-N-(1,1-dioxidotetrahydro-2H-thiopyran-4-yl)-4-((S)-2-methylpyrrolidine-1-carbonyl)thiazole-2-carboxamide]: in test [1], the Kd was determined as 3.4 nM. Moreover, in test [2] (Conditions B or C), the “RORγt … % inhibition (value marked *)” value is listed as 122* %. The concentration for half-maximal inhibition (IC50) in test [2] (setting [3]) is 69 nM.

Regarding `CC[C@H](Nc1cc(C(F)F)c(-c2sc(C(=O)N[C@@H]3C[C@H]3O)nc2C(=O)N2CCC[C@@H]2C)cn1)C(F)(F)F` (relative stereo) [Example 213, 5-(4-(Difluoromethyl)-6-(((S)-1,1,1-trifluorobutan-2-yl)amino)pyridin-3-yl)-N-((1R*,2R*)-2-hydroxycyclopropyl)-4-((S)-2-methylpyrrolidine-1-carbonyl)thiazole-2-carboxamide], in test [1], the dissociation constant (Kd) is 6.1 nM. In addition, the “RORγt … % inhibition (value marked *)” value in test [2] (Conditions B or C) is 103* %. Besides, the IC50 in test [2] (setting [3]) was determined as 19 nM.

Take `C[C@H]1CCCN1C(=O)c1nc(C(=O)NCCC(C)(C)O)sc1-c1cnc(NC(C)(C)C)cc1C(F)(F)F` [Example 338, 5-[6-(tert-Butylamino)-4-(trifluoromethyl)-3-pyridyl]-N-(3-hydroxy-3-methyl-butyl)-4-[(2S)-2-methylpyrrolidine-1-carbonyl]thiazole-2-carboxamide]: in test [1], the Kd turned out to be 3.9 nM. Moreover, the inhibition at 3 µM in test [2] (setting [5]) worked out at 107%. Besides, the concentration for half-maximal inhibition (IC50) in test [2] (setting [4]) is 7.7 nM.

For the molecule `C[C@H]1CCCCN1C(=O)c1nc(C(=O)NCC(C)(C)O)sc1-c1cnc(NC(C)(C)C2CC2)cc1C(F)F` [Example 88, (S)-5-(6-((2-Cyclopropylpropan-2-yl)amino)-4-(difluoromethyl)pyridin-3-yl)-N-(2-hydroxy-2-methylpropyl)-4-(2-methylpiperidine-1-carbonyl)thiazole-2-carboxamide], the dissociation constant (Kd) in test [1] was determined as 0.19 nM. Further, the “RORγt … % inhibition (value marked *)” value in test [2] (Conditions B or C) is reported as 138* %. In test [2] (setting [3]), the half-maximal inhibitory concentration (IC50) was found to be 10 nM.

For `C[C@H]1CCCN1C(=O)c1nc(C(=O)NCC(O)(C(F)(F)F)C(F)(F)F)sc1-c1cnc(NC(C)(C)C)cc1C(F)F` [Example 264, 5-[6-(tert-Butylamino)-4-(difluoromethyl)-3-pyridyl]-4-[(2S)-2-methylpyrrolidine-1-carbonyl]-N-[3,3,3-trifluoro-2-hydroxy-2-(trifluoromethyl)propyl]thiazole-2-carboxamide], in test [1], the Kd is 4.9 nM. Moreover, the inhibition at 3 µM in test [2] (setting [5]) was determined as 112%. Moreover, the IC50 in test [2] (setting [4]) was 28 nM.

Consider `CC(C)(C)Nc1cc(C(F)F)c(-c2sc(C(=O)N[C@@H]3CCC[C@H]3O)nc2C(=O)N2C3CCC2CC3)cn1` [Example 434, 4-((1s,4s)-7-Azabicyclo[2.2.1]heptane-7-carbonyl)-5-[6-(tert-butylamino)-4-(difluoromethyl)-3-pyridyl]-N-[(1R,2R)-2-hydroxycyclopentyl]thiazole-2-carboxamide], for which the Kd in test [1] came out at 0.63 nM. The molecule further displayed an IC50 in test [2] (RORγt (FL) Reporter Assay B or C, IC50) of 11 nM. For the same molecule, the inhibition at 3 µM in test [2] (setting [5]) amounted to 103%.

On to `CC[C@H](Nc1cc(C(F)F)c(-c2sc(C(=O)N[C@H](C)C(C)(C)O)nc2C(=O)N2C3CCC2CC3)cn1)C(F)(F)F` [Example 242, 4-((1s,4s)-7-Azabicyclo[2.2.1]heptane-7-carbonyl)-5-[4-(difluoromethyl)-6-[[(1S)-1-(trifluoromethyl)propyl]amino]-3-pyridyl]-N-[(1R)-2-hydroxy-1,2-dimethyl-propyl]thiazole-2-carboxamide], for which the equilibrium dissociation constant (Kd) in test [1] was determined as 2.8 nM. For the same molecule, the “RORγt … % inhibition (value marked *)” value in test [2] (Conditions B or C) is given as 86* %. In addition, the IC50 in test [2] (setting [3]) turned out to be 15 nM.

Consider `CC(C)(O)CNC(=O)c1nc(C(=O)N2C3CCC2CC3)c(-c2cnc(NCC3(C(F)(F)F)CCC3)cc2C(F)(F)F)s1` [Example 119, 4-((1s,4s)-7-Azabicyclo[2.2.1]heptane-7-carbonyl)-N-(2-hydroxy-2-methylpropyl)-5-(4-(trifluoromethyl)-6-(((1-(trifluoromethyl)cyclobutyl)methyl)amino)pyridin-3-yl)thiazole-2-carboxamide], for which the dissociation constant (Kd) in test [1] stood at 1.5 nM. Further, the “RORγt … % inhibition (value marked *)” value in test [2] (Conditions B or C) is recorded as 108* %. Also, in test [2] (setting [3]), the concentration for half-maximal inhibition (IC50) was determined as 17 nM.

As for `C[C@H](Nc1cc(C(F)F)c(-c2sc(C(=O)NCC(C)(C)O)nc2C(=O)N2CCC[C@@H]2C)cn1)C1CC1` [Example 43, 5-(6-(((S)-1-Cyclopropylethyl)amino)-4-(difluoromethyl)pyridin-3-yl)-N-(2-hydroxy-2-methylpropyl)-4-((S)-2-methylpyrrolidine-1-carbonyl)thiazole-2-carboxamide], in test [1], the Kd is 4.9 nM. In addition, the IC50 in test [2] (setting [3]) came out at 22 nM. Further, the inhibition at 6 µM in test [2] (read-out: RORγt (FL) Reporter Assay B or C, % inhibition @ 6 μM, Conditions B or C, @ 6 μM) was 107%.

With `C[C@H]1CCCN1C(=O)c1nc(C(=O)NCC(C)(C)O)sc1-c1cnc(N[C@H](C)C(F)(F)F)cc1C(F)(F)F` [Example 54, N-(2-Hydroxy-2-methylpropyl)-4-((S)-2-methylpyrrolidine-1-carbonyl)-5-(4-(trifluoromethyl)-6-(((R)-1,1,1-trifluoropropan-2-yl)amino)pyridin-3-yl)thiazole-2-carboxamide], in test [1], the equilibrium dissociation constant (Kd) amounted to 12 nM. Also, in test [2] (Conditions B or C), the “RORγt … % inhibition (value marked *)” value was 109* %. Also, the concentration for half-maximal inhibition (IC50) in test [2] (setting [3]) came out at 46 nM.

Turning to `CCC(C)(C)Nc1cc(C(F)(F)F)c(-c2sc(C(=O)NCC(C)(C)O)nc2C(=O)N2CCCC[C@@H]2C)cn1` [Example 108, (S)—N-(2-Hydroxy-2-methylpropyl)-4-(2-methylpiperidine-1-carbonyl)-5-(6-(tert-pentylamino)-4-(trifluoromethyl)pyridin-3-yl)thiazole-2-carboxamide], the dissociation constant Kd in test [1] was found to be 0.07 nM. In addition, the “RORγt … % inhibition (value marked *)” value in test [2] (Conditions B or C) is reported as 104* %. The IC50 in test [2] (setting [3]) came out at 47 nM.

Regarding `C[C@H](NC(=O)c1nc(C(=O)N2CCC[C@@H]2C)c(-c2cnc(NC(C)(C)C)cc2C(F)(F)F)s1)[C@@H](C)O` (relative stereo) [Example 238, 5-(6-(tert-Butylamino)-4-(trifluoromethyl)pyridin-3-yl)-N-((2S*,3R*)-3-hydroxybutan-2-yl)-4-((S)-2-methylpyrrolidine-1-carbonyl)thiazole-2-carboxamide], the Kd in test [1] came out at 5.5 nM. Moreover, in test [2] (Conditions B or C), the “RORγt … % inhibition (value marked *)” value is 92* %. For the same molecule, the 50% inhibitory concentration (IC50) in test [2] (setting [3]) came out at 29 nM.

Consider `CC[C@H](Nc1cc(C(F)F)c(-c2sc(C(=O)N[C@H]3C[C@H]3O)nc2C(=O)N2CCC[C@@H]2C)cn1)C(F)(F)F` (relative stereo) [Example 212, 5-(4-(Difluoromethyl)-6-(((S)-1,1,1-trifluorobutan-2-yl)amino)pyridin-3-yl)-N-((1S*,2R*)-2-hydroxycyclopropyl)-4-((S)-2-methylpyrrolidine-1-carbonyl)thiazole-2-carboxamide], for which the dissociation constant Kd in test [1] worked out at 13 nM. The “RORγt … % inhibition (value marked *)” value in test [2] (Conditions B or C) was 104* %. Also, in test [2] (setting [3]), the IC50 came to 300 nM.

Consider `C[C@H]1CC(F)(F)CN1C(=O)c1nc(C(=O)NCC(C)(C)O)sc1-c1cnc(NCC2(C)CC2)cc1C(F)(F)F` [Example 277, 4-[(2S)-4,4-Difluoro-2-methyl-pyrrolidine-1-carbonyl]-N-(2-hydroxy-2-methyl-propyl)-5-[6-[(1-methylcyclopropyl)methylamino]-4-(trifluoromethyl)-3-pyridyl]thiazole-2-carboxamide], for which the Kd in test [1] amounted to 2.4 nM. In test [2] (setting [5]), the inhibition at 3 µM stood at 113%. In addition, the IC50 in test [2] (setting [4]) was 11 nM.
